Results reported in patent US6004938A, “Inositolglycans having insulin-like action” (Hoescht Aktiengesellschaft, priority 1996, dated 1999).

What was measured:
rat fat cells [1] = test: Lipogenesis in isolated rat fat cells (insulin-like activity); format: cell-based, rat (Wistar); conditions: rat fat cells, 90 min, 37° C.; for EC50: concentration at 50% of the maximum stimulation achieved by the respective compound, read-out: Lipogenesis EC50; for Emax / Lipogenesis % Insmax: part of maximum stimulation factor of insulin (set at 100%), D-[3-3H]glucose; for Emax: read-out: Lipogenesis % Insmax
Description: (§1) This example provides exemplary methods for determining insulin-like activity. The biological activity of the compounds of the formula I according to the invention is determined with the aid of isolated fat cells from the rat.
(§2) The preparation of fat cells from the rat was carried out as follows: White fatty tissue of the epididymis (Wistar rat, 160-180 g, no food restriction) is digested with collagenase and the resulting isolated fat cells are separated off by means of filtration of undigested tissue and washed by flotation several times using Krebs-Ringer-Henseleit buffer (KRH buffer).
This test determines the insulin-stimulable conversion of glucose into toluene-soluble products (triglycerides, phospholipids, fatty acids), which promotes glucose transport and triglyceride (glycerol-3-P synthesis, esterification)/phospholipid/fatty acid synthesis including the insulin signal transmission cascade. At a glucose concentration of 2.5 mM in the test, the esterification (and not the glycerol-3-P synthesis including glucose transport) is rate-determining for the stimulation of lipogenesis.
200 μl (3×10^5 cells/ml) of rat fat cells in KRH buffer are incubated at 37° C. for 90 min with 100 μl of D-[3-^3 H] glucose (25 mM, 0.4 μCi) in the presence or absence of insulin (10 ng/ml) or compound of the formula I according to the invention (final volume 1 ml). By addition of a toluene-soluble scintillation cocktail (10 ml), the cells are disrupted and the lipids are separated off from water-soluble products and the incubation medium. After phase separation, the radioactivity incorporated in lipid products is determined directly without removal of the aqueous phase by scintillation measurement ([^3 H]lipid [dpm×10^-3 ]). A control value (incubation under identical conditions but without cells) is subtracted from this radioactivity. The lipogenesis rate is linear up to 120 min. The maximum stimulation factor--this is the ratio of the incubation result with insulin to the incubation results without insulin--is set at 100%. The percentage data under "%Insmax " are parts of the maximum stimulation factor defined in this way. The term EC50 indicates the concentration of the compound of the formula I at which 50% of the maximum stimulation to be achieved by the respective compound of the formula I is to be observed.

rat fat cells [2] = test: Glucose transport in isolated rat fat cells (insulin-like activity); format: cell-based, rat (Wistar); conditions: rat fat cells, 2-[3H]-deoxyglucose; for Emax: 0.25 h, read-out: Glucose transport % Insmax; for Emax / Glucose transport % Insmax: part of maximum stimulation factor of insulin (set at 100%), 15 min, 37° C.; for EC50: concentration at 50% of the maximum stimulation achieved by the respective compound, read-out: Glucose transport EC50
Description: as §1, §2
[…] After addition of 15 μl of 2-[^3 H]-deoxyglucose (0.3 mM, 0.2 μCi), the incubation is continued at room temperature. After specified times (0-20 min), 100 μl of the test batch are removed and transferred to a reaction vessel (contents 400 μl), in which 250 μl of dinonyl phthalate have been initially introduced. After centrifugation (15,000×g, 1 min), the cells are separated off from the oily layer of the incubation medium underneath the oily layer by cutting the tube at the level of the oily layer and transferring to a scintillation vessel. After addition of 5 ml of water-soluble scintillation fluid, the radioactivity is determined. This total cell-associated radioactivity is corrected for [^3 H]-deoxyglucose which has passively diffused into the cells and is included in the cell interstices by subtraction of a control value (incubation in the presence of the glucose transport inhibitor cytochalasin B). The initial (stimulated) glucose transport rate is linear up to 15 min. The maximum stimulation factor--this is the ratio of the incubation result with insulin to the incubation result without insulin--is set at 100%.
The terms "%Insmax " and "EC50 " are as defined under A) lipogenesis.

Compound	EC50 (rat fat cells [1]; 1.5 h) [µM]	EC50 (rat fat cells [2]) [µM]	EC50 (rat fat cells [1]) [µM]	Emax (rat fat cells [1]; 1.5 h) [%]	Emax (rat fat cells [2]) [%]	Lipogenesis % Insmax (rat fat cells [1]) [%]	Glucose transport % Insmax (rat fat cells [2]) [%]
H2 N-CO-6Manα1(Manα1-2)-2Manα1-6Manα1-4GluNβ1-6(D)-inositol-1,2-(cyclic)-phosphate [K]	–	15	8	–	–	72	23
HO-PO(H)O-6-Manα1(Manα1-2)-2-Manα1-6Manα-3GluNβ1-6(L)-inositol-3-phosphate	–	20	20	–	–	32	18
HO-PO(H)O-6Manα1(Manα1-2)-2-Manα1-6-Manα1-4GluN(HSO3)β-1-6(L)-inositol-1,2-(cyclic)-phosphate [J]	–	3	8	–	–	63	21
HO-PO(H)O-6Manα1(Manα1-2)-2Manα1-6Manα1-4GluNα1-6(L)inositol-2-phosphate [F]	–	25	15	–	–	53	26
HO-PO(H)O-6Manα1-6-Manα1-6Manα1-6Manα1-3GluNβ1-6(L)inositol-3-phosphate	–	50	20	–	–	18	14
HO-SO2 -6Manα1(Manα1-2)-2Manα1-6Manα1-4GluNβ1-6(D)-inositol-1,2-(cyclic)-phosphate	–	8	7	–	–	84	36

Now from value to compound, other results behind:

EC50 (rat fat cells [1]; 1.5 h) [µM]	EC50 (rat fat cells [2]) [µM]	EC50 (rat fat cells [1]) [µM]	Compound	Emax (rat fat cells [1]; 1.5 h) [%]	Emax (rat fat cells [2]) [%]	Lipogenesis % Insmax (rat fat cells [1]) [%]	Glucose transport % Insmax (rat fat cells [2]) [%]
12	10	–	N[C@H]1[C@H](O[C@H]2[C@H](O)[C@@H](O)[C@H](OP(=O)(O)O)[C@H](O)[C@@H]2O)O[C@H](CO)[C@@H](O)[C@@H]1O[C@H]1O[C@H](CO[C@H]2O[C@H](CO[PH](=O)O)[C@@H](O)[C@H](O)[C@@H]2O[C@H]2O[C@H](CO[PH](=O)O)[C@@H](O)[C@H](O)[C@@H]2O[C@H]2O[C@H](CO)[C@@H](O)[C@H](O)[C@@H]2O)[C@@H](O)[C@H](O)[C@@H]1O [T, HO-PO(H)O-6Manα1(Manα1-2)-2Manα1(6-PO(H)OH)-6Manα1-3GluNβ1-6(L)inositol-3-phosphate]	72	30	–	–
15	15	–	N[C@H]1[C@H](O[C@H]2[C@H](O)[C@@H](O)[C@H](OP(=O)(O)O)[C@H](O)[C@@H]2O)O[C@H](CO)[C@@H](O)[C@@H]1O[C@H]1O[C@H](CO[C@H]2O[C@H](CO[PH](=O)O)[C@@H](O)[C@H](O)[C@@H]2O[C@H]2O[C@H](CO)[C@@H](O)[C@H](O)[C@@H]2O[C@H]2O[C@H](CO)[C@@H](O)[C@H](O)[C@@H]2O)[C@@H](O)[C@H](O)[C@@H]1O [U, Manα1-2Manα1-2Manα1(6-PO(H)OH)-6Manα1-3GluNβ1-6(L)inositol-3-phosphate]	80	34	–	–
15	15	–	N[C@H]1[C@H](O[C@H]2[C@H](O)[C@@H](O)[C@H](OP(=O)(O)O)[C@H](O)[C@@H]2O)O[C@H](CO)[C@@H](O)[C@@H]1O[C@H]1O[C@H](CO[C@H]2O[C@H](COS(=O)(=O)O)[C@@H](O)[C@H](O)[C@@H]2O[C@H]2O[C@H](CO)[C@@H](O)[C@H](O)[C@@H]2O[C@H]2O[C@H](CO)[C@@H](O)[C@H](O)[C@@H]2O)[C@@H](O)[C@H](O)[C@@H]1O [V, Manα1(Manα1-2)-2Manα1(6-HSO3)-6Manα1-3GluNβ1-6(L)inositol-3-phosphate]	83	48	–	–
10	10	–	N[C@H]1[C@H](O[C@H]2[C@H](O)[C@@H](O)[C@H](OP(=O)(O)O)[C@H](O)[C@@H]2O)O[C@H](CO)[C@@H](O)[C@@H]1O[C@H]1O[C@H](CO[C@H]2O[C@H](COS(=O)(=O)O)[C@@H](O)[C@H](O)[C@@H]2O[C@H]2O[C@H](COS(=O)(=O)O)[C@@H](O)[C@H](O)[C@@H]2O[C@H]2O[C@H](CO)[C@@H](O)[C@H](O)[C@@H]2O)[C@@H](O)[C@H](O)[C@@H]1O [W, HO-SO2 -O-6Manα1(Manα1-2)-2-Manα1(6-HSO3)-6Manα1-3GluNβ1-6(L)inositol-3-phosphate]	86	42	–	–
